Data published in US4476319A, “P-Chlorophenoxyacetic acid derivative, its method of preparation, the pharmaceutical compositions containing it and its use in medicine” (Sociedad Espanola de Especialidades Farmaco-Terapeuticas …, priority 1981, dated 1984).

Experiments:
[1] = tested on: cataleptic condition in rats, induced by fluphenazine; test: Anti-cataleptic activity: Morpurgo test, antagonism of fluphenazine-induced catalepsy; format: in vivo, rat
Excerpt: This activity was the subject of Morpurgo tests (Arch. Int. Pharmacodyn, 137, 84 (1962), based on antagonizing the cataleptic condition in rats, induced by fluphenazine.

[2] = LD50 in the rat; conditions: in vivo
[3] = tested on: desperation behavior in mice; test: Anti-depressant activity: desperation behavior in mice (Porsalt); format: in vivo, mouse
Experimental: This activity was evaluated by the method of examining the desperation behavior in mice (Porsalt, T. D., Arch. Int Pharmacodyn 229, 327 (1977).
A state of despair was induced by placing the animal in a cylinder containing water, and from which escape was impossible, the animal then finding itself obliged to treadmill continually. After a period of vigorous activity, the mouse assumes a characteristic immobile posture, which behavior is capable of reduction by the use of various types of pharmaceutical anti-depressants.

[4] = LD50 in the mouse; conditions: in vivo
[5] = tested on: loss of memory induced by electric shock; test: Nootropa activity: protection from memory loss induced by electric shock, aquatic labyrinth (number of errors); format: in vivo, rat; conditions: rats
Experimental: Tests were carried out on rats using the technique estimating the loss of memory induced by electric shock, the loss of memory being determined as related to the number of errors made in seeking the outlet from an acquatic labyrinth (Giurgea C. J. Pharmacol (Paris) 3, 1, 17, *1972).

[6] = tested on: learning in the acquatic labyrinth; test: Learning activity: learning in the acquatic labyrinth; format: in vivo
[7] = tested on: learning in the conditioning cage; test: Learning activity: conditioning cage (electric shock avoidance); format: in vivo
[8] = Toxicity, Irwin or "screening" multi-dimensional test; format: in vivo
[9] = ip, i.p. (intraperitoneal route)
[10] = statement covers acquatic labyrinth and conditioning cage tests

SMILES: O=C(COc1ccc(Cl)cc1)OCCNC12CC3CC(CC(C3)C1)C2 [Compound I, p-chlorophenoxyacetate of 1-aminoadamantine-2-ethanol]
- Reduction of the cataleptic activity of fluphenazine, in words [1]: slightly reduced the cataleptic activity of the fluphenazine
- LD50 [2, 9]: 360 mg/kg
- LD50 ([2]; p.o. (oral route)): > 4000 mg/kg
- Anti-depressant effects, in words ([3]; desperation behavior): moderate anti-depressant effects
- Protection with respect to the control (anti-depressant activity) ([3]; vs control, p < 0.001): 45.9%
- LD50 [4, 9]: 415 mg/kg
- LD50 ([4]; p.o. (oral route)): > 4000 mg/kg
- Nootropa activity, in words ([5]; loss of memory by electric shock): notably active
- Protection from memory loss due to electric shock (number of errors) ([5]; number of errors in acquatic labyrinth, p < 0.01): 46.5%
- Decrease with respect to the control in the errors made in the acquatic labrinth (5th day) ([6]; 5th day, vs control, p < 0.01): 51.6%
- Learning facility in the acquatic labyrinth, in words [6, 10]: increased learning facility
- Learning facility in the conditioning cage, in words [7, 10]: increased learning facility
- Increase with respect to the control in the conditioning cage (learning facility) ([7]; vs control, p < 0.001): 14.4%
- Toxicity: effects of non-toxic doses ([8]; non-toxic doses): no evidence as to effects of non-toxic doses
- Toxicity: effects of toxic doses ([8]; toxic doses): death accompanied by trembling and clonic convulsions
